This test concerns PC-3 cells. Nature of the test: Label-free quantitative proteomics and Ingenuity Pathway Analysis. The class given is cell-based, human. The settings on record: PC-3, 10 μM, 72 hours. On the procedure: FIG. 7. Volcano Plot of Differentially regulated proteins in response to C3 treatment. PC-3 cells were treated with DMSO or 10 μM C3 for 72 hours and proteins were quantified using label free quantitative mass spectrometry. Proteins were graphed by fold change (Difference) and significance (−Log p) using a false discovery rate of 0.05 and an S0 of 0.1.
FIG. 8 Ingenuity pathway analysis of proteomic data from C3 treatment of PC-3 cells.
Wound Healing Assay. PC-3 cells were seeded in 6 well plates at 3×10^5 cells per well in complete media until the cells reached confluency. Three horizontal and three vertical scratches were made in the confluent monolayers using a standard 200 μL pipette tip and cellular debris were removed by washing with 1×DPBS three times. 1×RPMI-1640 supplemented with C3 or DMSO was added and cells were incubated for 48 hours as described previously. […] Images were uploaded and analyzed for scratch geometry using the tscratch program (96). First, global thresholding was performed, then individual images were manually inspected for single image threshold adjustment and scratch geometries were quantified. […] The samples were analyzed using the Dionex UltiMate 3000 RSLC Nano System coupled to the Q Exactive™ HF Hybrid Quadrupole-Orbitrap MS (Thermo Scientific). […]

`O=C(c1cc(F)cc2c1OCOC2)N1CCN(C2c3ccccc3-c3ccccc32)CC1` [Compound C3, [4-(9h-fluoren-9-yl)piperazino](6-fluoro-4h-1,3-benzodioxin-8-yl)methanone] registered an ICT1 protein level of 1.9 FC.

The values above are taken from patent publication US11022604B2, “Dock derived compound against laminin receptor (37 LR) and uses thereof” (Purdue Research Foundation, priority 2017, dated 2021).
